Source: US6303596A, “Use of taurolidine for treatment of leukemias” (priority 2000, dated 2001)
Read-outs that look alike come from different tables or passages of the source.

How the values were obtained:
Type in all cases: cell-based, human
GM5387 = experiment: TUNEL / propidium iodide flow cytometry, GM5387; conditions: GM5387, 6 hours after treatment
Experimental: (§1) In the second method, DNA fragmentation was detected via TUNEL assay according to the manufacturer's instructions. With this methodology, 2×10^6 cells were fixed with 2% paraformaldehyde, permeabilized with 0.1% Triton X-100/0.1% citrate, incubated at 37° C. with terminal deoxynucleotidyl transferase and FITC-dUTP, rinsed and analyzed by flow cytometry. Enhanced FITC signal indicates apoptosis-specific DNA fragmentation. Gavriali, et al, "Identification of programmed cell death in situ via specific labeling of nuclear DNA fragmentation," J Cell Biol 119:493 (1992). Parallel aliquots of unfixed cells were treated with PI and FITC-conjugated anti-CD14 and analyzed by flow cytometry, in order to identify cells with permeable cell membranes (since PI binds to DNA but is excluded from cells with intact plasma membranes) and also to determine the cell-specificity of the apoptotic signal.
In another study, TUNEL assays were performed on all cell lines 6 hours after cells were initially exposed to taurolidine (cells were treated for 4 hours, rinsed, and then incubated for 2 more hours before TUNEL assay was performed).
. Taurolidine and anisomycin induced apoptosis in MM6, HL-60, and Jurkat cells (Table VIII). MM6 and HL-60 cells were similarly effected, with >80% TUNEL-positive cells after 6 hours. […]
Data are percent of total cell-size events, and are expressed as mean ± […]

[1] = TUNEL / propidium iodide flow cytometry, PBMC all cells, culture medium; conditions: human, pbmc, PBMC all cells, 6 h, mean ± SD of two experiments, read-out: % Propidium Iodide Positive
Experimental: (§2) FIG. 14A and FIG. 14B are terminal deoxytransferase-mediated deoxyuridine-triphosphate-biotin nick end labeling assay (TUNEL) analyses of control cells and taurolidine-treated PBMC, respectively. Cells were incubated with 100 μg/ml taurolidine for six hours and processed for TUNEL analysis as given below. Parallel samples were stained with FITC-conjugated anti-CD14 and propidium iodide (PI) as described below. Ten thousand events were recorded per sample. TUNEL signal (x-axis) is a measure of DNA fragmentation, which FSC (y-axis) is related to cell size. TUNEL-negative lymphocytes are bounded by the rectangle R1, while TUNEL-negative monocytes (CD14 positive cells) are bounded by the rectangle R2. The vertical line indicates demarcation between TUNEL-negative and TUNEL-positive cells. There were minimal numbers of PI-positive cells in the six hour samples (see Table IV).
as §1
(§3) A Becton-Dickinson FACSCalibur instrument was used for flow cytometric analysis of cells. Assessment of cell diameter (forward scatter; FCS) and granularity (side scatter; SSC).was carried out on unfixed cells. Discrimination between lymphocytes and monocytes was made possible by their characteristic differences in FSC and SSC, and confirmed by staining monocytes with FITC-labeled anti-CD14 antibodies and lymphocytes with a combination of FITC-conjugated anti-CD3 and PE-conjugated anti-CD19. After incubation with taurolidine (with or without concomitant LPS treatment), cells were rinsed twice in phosphate-buffered saline containing 0.1% bovine serum albumin (PBSA) and 1×10^6 cells were resuspended in 0.1 ml PBSA. After 5 μl FITC-conjugated anti-CD14 was added, cells were incubated in the dark on ice for 15 minutes and then centrifuged at 250×g. Cells were resuspended in 500 μl PBSA containing 5 μg/ml PI and subjected to flow cytometry.
(§4) Consequently, TUNEL analysis was performed on PBMC at 3, 6, or 24 hours after treatment with 25 to 100 μg/ml taurolidine. Aliquots of harvested cells were also labeled with FITC-conjugated anti-CD14 antibodies and PI, which allowed identification of monocytes (CD14-positive cells) and cells with damaged cell membranes (PI-positive cells). […] Thus, nearly 75% of the monocytes were TUNEL-positive following treatment with 100 μg/ml taurolidine for six hours. Confirmation that the TUNEL-positive cells were monocytes was obtained by staining with FITC-conjugated anti-CD14.
(§5) ^a Analysis by flow cytometry after staining cells with FITC-conjugated
(§6) anti-CD14 and PI, and processing for TUNEL. Data are mean ± SD of two

PBMC = experiment: as above; conditions: PBMC
Experimental: as §2, §1, §3, §4, §5, §6

O=S1(=O)CCN(CN2CCS(=O)(=O)NC2)CN1 [taurolidine, 4,4'-methylenebis(perhydro-1,2,4-thiadiazin 1,1-dioxide)]
DNA fragmentation (TUNEL positivity) (GM5387): did not demonstrate evidence for fragmentation of DNA | cytotoxicity at 6 h ([1]; 25 μg/ml): 9 ± 3.2% | cytotoxicity at 6 h ([1]; 50 μg/ml): 12.2 ± 5.6% | cytotoxicity at 6 h ([1]; 100 μg/ml): 9 ± 3.5% | TUNEL-positive PBMC (PBMC; 100 μg/ml, 6 h): substantial population of TUNEL-positive cells | TUNEL-positive PBMC (PBMC; 3 h incubation): relatively few | PI-positive cells versus control (PBMC; taurolidine, 6 h): equivalently low levels of PI-positive cells
